Test results published in patent publication US20200277301A1 (ALFASIGMA S.P.A., priority 2005, published 2020).

How the values were obtained:
[1] = in vivo; design: species or system Beagle female dogs; conditions: female, Beagle, dog, po, 100 mg/kg
Experimental: Eight pure-bred Beagle females dogs having 20 weeks of age and weighing between 5.0 and 7.5 kg have been divided into two groups of four.
Each sample has been transferred into a tube containing heparin as anticoagulant and has been centrifuged; the plasma has been divided into two aliquots, each of 500 μl, and has been frozen at −20° C.
Tmax=time at which the Cmax is reached;
AUC=area under the concentration-time curve calculated through the linear trapezoidal rule.

[2] = Hygroscopicity of the polymorphous forms; format: physicochemical; conditions: absorb water in a reversible way under suitable pressure and ambient humidity
Text: Both the forms δ and ε of the rifaximin are hygroscopic, they absorb water in a reversible way during the time in the presence of suitable conditions of pressure and humidity in the ambient and are susceptible of transformation to other forms.

AUC0-24 Mean [1]	Cmax Mean [1]	Tmax Mean [1]	Cmax ([1]; Cmax)	hygroscopicity (in words) [2]	Tmax [1]	Structure (SMILES)
801 ng·h/mL	308.31 ng/mL	2 h	308 ng/mL	hygroscopic	–	CO[C@H]1/C=C/O[C@@]2(C)Oc3c(C)c(O)c4c(O)c(c5c(nc6cc(C)ccn65)c4c3C2=O)NC(=O)/C(C)=C\C=C\[C@H](C)[C@H](O)[C@@H](C)[C@@H](O)[C@@H](C)[C@H](OC(C)=O)[C@@H]1C [Polymorph δ, rifaximin]
42 ng·h/mL	6.86 ng/mL	–	–	hygroscopic	4 h	CO[C@H]1/C=C/O[C@@]2(C)Oc3c(C)c(O)c4c(O)c(c5c(nc6cc(C)ccn65)c4c3C2=O)NC(=O)/C(C)=C\C=C\[C@H](C)[C@H](O)[C@@H](C)[C@@H](O)[C@@H](C)[C@H](OC(C)=O)[C@@H]1C [Polymorph ε, rifaximin]
